Results on 30 compounds are retold here after ChEMBL document CHEMBL4418493, “N-hydroxyformamide compounds and compositions comprising them for use as BMP1, TLL1 and/or TLL2 inhibitors” (2018).

A short description of data set [1]: Reduction in mature collagen deposition levels in human cardiac fibroblasts incubated for 24 to 48 hrs by immunostaining based assay. The format is functional.
Data set [2] can be described thus: Drug metabolism in heparinized pooled human plasma at pH 7.5 assessed as formation of (S)-2-(2-ethoxy-4-(5-((((R)-2-((R)-1-(N-hydroxyformamido)propyl)heptanamido)methyl) carbamoyl)furan-2-yl)benzamido)succinic acid at 100 to 2000 ng/ml incubated up to 4 or 24 hrs by LC-MS/MS analysis. Particulars: pH 7.5, 24 h. The format is ADME, cell-free.
A short description of data set [3]: Reduction in PICP levels in human cardiac fibroblasts incubated for 24 to 48 hrs by ELISA. The format is functional. (In general: In an ELISA, binding on a coated surface is turned into a signal by an enzyme label.)
Data set [4] in a line: Drug metabolism in heparinized pooled human plasma at pH 7.5 assessed as formation of (S)-2-(2-(carboxymethoxy)-4-(5-((((R)-2-((R)-1-(N-hydroxyformamido)propyl)heptanamido)methyl)carbamoyl)furan-2-yl)benzamido)succinic acid at 100 to 2000 ng/ml incubated up to 4 or 24 hrs by LC-MS/MS analysis. The format is ADME, cell-free. Conditions: pH 7.5, 24 h.
The nature of data set [5]: Stability in pH 7.96 assessed as compound purity level at 1 mg/ml heated to 40 degC and measured at 200 hrs by LC/MS analsysis. The format is physicochemical. Particulars: buffer, read-out: Stability.
The nature of data set [6]: Drug metabolism in heparinized pooled human plasma at pH 7.5 assessed as conversion to active compound at 100 to 2000 ng/ml incubated for 4 by LC-MS/MS analysis. The format is ADME, cell-free.
A short description of data set [7]: Drug metabolism in heparinized pooled human plasma at pH 7.5 assessed as formation of (3-ethoxy-5-(5-((((R)-2-((R)-1-(N-hydroxyformamido)propyl)heptanamido)methyl)carbamoyl) furan-2-yl)phenyl)phosphonic acid at 100 to 2000 ng/ml incubated up to 4 or 24 hrs by LC-MS/MS analysis. The format is ADME, cell-free. Particulars: pH 7.5, 24 h.

For the compound `CCCCC[C@@H](C(=O)NCNC(=O)c1ccc(-c2ccc(C(=O)N[C@@H](CC(=O)O)C(=O)O)c(OCC)c2)o1)[C@@H](CC)N(C=O)OC(=O)c1ccc(O)cc1`, the figures for the IC50 in data set [1] and in data set [3] were under 1 µM and under 3.98 µM, respectively. The Drug metabolism result in data set [2] is “Metabolite_Detected”.

Consider `CCCCC[C@@H](C(=O)NCNC(=O)c1ccc(-c2ccc(C(=O)N[C@@H](CC(=O)O)C(=O)O)c(OCC(=O)O)c2)o1)[C@@H](CC)N(C=O)OC(=O)C(CC)CC`, for which the IC50 (commonly the point on the concentration scale where inhibition reaches its midpoint) was under 1 µM in data set [1] and under 3.98 µM in data set [3]. Besides, in data set [4], the Drug metabolism entry is recorded as “Metabolite_Detected”.

As to `CCCCC[C@@H](C(=O)NCNC(=O)c1ccc(-c2ccc(C(=O)N[C@@H](CC(=O)O)C(=O)O)c(OCC)c2)o1)[C@@H](CC)N(C=O)OC(=O)c1ccccc1C`, the IC50 was under 1 µM in data set [1] and under 3.98 µM in data set [3]. The Drug metabolism result in data set [2] was “Metabolite_Detected”.

Regarding `CCCCC[C@@H](C(=O)NCNC(=O)c1ccc(-c2ccc(C(=O)N[C@@H](CC(=O)O)C(=O)O)c(OCC(=O)O)c2)o1)[C@@H](CC)N(C=O)OC(=O)c1ccccc1`, the remaining at 200 h, 1 mg/ml in data set [5] was under 80%. Besides, the Drug metabolism was over 10% in data set [6] and “Metabolite_Detected” in data set [4].

Turning to `CCCCC[C@@H](C(=O)NCNC(=O)c1ccc(-c2cc(OCC)cc(P(=O)(O)O)c2)o1)[C@@H](CC)N(C=O)OCOP(=O)(O)O`, the Drug metabolism is reported as over 10% in data set [6] and “Metabolite_Detected” in data set [7].

For `CCCCC[C@@H](C(=O)NCNC(=O)c1ccc(-c2ccc(C(=O)N[C@@H](CC(=O)O)C(=O)O)c(OCC)c2)o1)[C@@H](CC)N(C=O)OC(=O)c1ccc(N2CCCC2)c(F)c1.N.N`, the results for the IC50 in data set [1] and in data set [3] were under 1 µM and under 3.98 µM, respectively. Moreover, in data set [2], the Drug metabolism entry is “Metabolite_Detected”.

As for `CCCCC[C@@H](C(=O)NCNC(=O)c1ccc(-c2ccc(C(=O)N[C@@H](CC(=O)O)C(=O)O)c(OCC)c2)o1)[C@@H](CC)N(C=O)OC(=O)c1ccccc1`, the remaining at 200 h, 1 mg/ml in data set [5] was under 80%. Further, the Drug metabolism is over 10% in data set [6] and “Metabolite_Detected” in data set [2]. Further, the IC50 in data set [3] is under 3.98 µM.

With `CCCCC[C@@H](C(=O)NCNC(=O)c1ccc(-c2ccc(C(=O)N[C@@H](CC(=O)O)C(=O)O)c(OCC(=O)O)c2)o1)[C@@H](CC)N(C=O)OC(=O)c1ccccc1OC(C)=O`, the remaining at 200 h, 1 mg/ml in data set [5] is under 80%. Moreover, the Drug metabolism was over 10% in data set [6] and “Metabolite_Detected” in data set [4]. The IC50 in data set [3] is under 3.98 µM.

Consider `CCCCC[C@@H](C(=O)NCNC(=O)c1ccc(-c2ccc(C(=O)N[C@@H](CC(=O)O)C(=O)O)c(OCC(=O)O)c2)o1)[C@@H](CC)N(C=O)OC(=O)c1ccccc1C`, for which, in data set [5], the remaining at 200 h, 1 mg/ml was under 80%. Further, the Drug metabolism in data set [6] is recorded as over 10%; in data set [4], “Metabolite_Detected”.

In the case of `CCCCC[C@@H](C(=O)NCNC(=O)c1ccc(-c2ccc(C(=O)N[C@@H](CC(=O)O)C(=O)O)c(OCC)c2)o1)[C@@H](CC)N(C=O)OC(=O)Cc1ccccc1`, the remaining at 200 h, 1 mg/ml in data set [5] was under 80%. Also, the Drug metabolism in data set [6] is over 10%; in data set [2], “Metabolite_Detected”.

Turning to `CCCCC[C@@H](C(=O)NCNC(=O)c1ccc(-c2ccc(C(=O)N[C@@H](CC(=O)O)C(=O)O)c(OCC)c2)o1)[C@@H](CC)N(C=O)OC(=O)OC(C)(C)C`, the IC50 in data set [1] is under 1 µM; in data set [3] it was under 3.98 µM. Besides, in data set [2], the Drug metabolism entry was “Metabolite_Detected”.

In the case of `CCCCC[C@@H](C(=O)NCNC(=O)c1ccc(-c2cc(OCC)cc(P(=O)(O)O)c2)o1)[C@@H](CC)N(C=O)OC(=O)OC(C)(C)C`, the IC50 in data set [1] is under 1 µM; in data set [3], under 3.98 µM. The Drug metabolism result in data set [7] is on record as “Metabolite_Detected”.

Consider `CCCCC[C@@H](C(=O)NCNC(=O)c1ccc(-c2ccc(C(=O)N[C@@H](CC(=O)O)C(=O)O)c(OCC)c2)o1)[C@@H](CC)N(C=O)OC(=O)c1cccc(-n2cccc2)c1`, for which the results for the IC50 in data set [1] and in data set [3] were under 1 µM and under 3.98 µM, respectively. Besides, the Drug metabolism result in data set [2] was “Metabolite_Detected”.

As for `CCCCC[C@@H](C(=O)NCNC(=O)c1ccc(-c2ccc(C(=O)N[C@@H](CC(=O)OCOC(=O)C(C)C)C(=O)OCOC(=O)C(C)C)c(OCC)c2)o1)[C@@H](CC)N(O)C=O`, the IC50 is under 1 µM in data set [1] and under 3.98 µM in data set [3]. The Drug metabolism entry in data set [2] is on record as “Metabolite_Detected”.

On to `CCCCC[C@@H](C(=O)NCNC(=O)c1ccc(-c2ccc(C(=O)N[C@@H](CC(=O)O)C(=O)O)c(OCC)c2)o1)[C@@H](CC)N(C=O)OC(=O)c1c(C)ccnc1C`, for which the figures for the IC50 in data set [1] and in data set [3] were under 1 µM and under 3.98 µM, respectively. Also, the Drug metabolism entry in data set [2] is listed as “Metabolite_Detected”.

For the compound `CCCCC[C@@H](C(=O)NCNC(=O)c1ccc(-c2ccc(C(=O)N[C@@H](CC(=O)O)C(=O)O)c(OCC)c2)o1)[C@@H](CC)N(C=O)OC(=O)NC(C)(C)C`, the IC50 in data set [1] was under 1 µM; in data set [3] it was under 3.98 µM. In addition, the Drug metabolism entry in data set [2] was “Metabolite_Detected”.

As to `CCCCC[C@@H](C(=O)NCNC(=O)c1ccc(-c2ccc(C(=O)N[C@@H](CC(=O)O)C(=O)O)c(OCC)c2)o1)[C@@H](CC)N(C=O)OC(=O)c1ccc(OC)cc1OC(F)(F)F`, the IC50 was under 1 µM in data set [1] and under 3.98 µM in data set [3]. Besides, in data set [2], the Drug metabolism result is reported as “Metabolite_Detected”.

Take `CCCCC[C@@H](C(=O)NCNC(=O)c1ccc(-c2ccc(C(=O)N[C@@H](CC(=O)O)C(=O)O)c(OCC)c2)o1)[C@@H](CC)N(C=O)OC(=O)c1ccc(OC)cc1OC`: the IC50 in data set [1] is under 1 µM; in data set [3], under 3.98 µM. Besides, the Drug metabolism result in data set [2] is “Metabolite_Detected”.

Turning to `CCCCC[C@@H](C(=O)NCNC(=O)c1ccc(-c2ccc(C(=O)N[C@@H](CC(=O)O)C(=O)O)c(OCC)c2)o1)[C@@H](CC)N(C=O)OC(=O)c1ccccc1C(C)C`, the figures for the IC50 in data set [1] and in data set [3] were under 1 µM and under 3.98 µM, respectively. Also, in data set [2], the Drug metabolism result was “Metabolite_Detected”.

Take `CCCCC[C@@H](C(=O)NCNC(=O)c1ccc(-c2ccc(C(=O)N[C@@H](CC(=O)O)C(=O)O)c(OCC)c2)o1)[C@@H](CC)N(C=O)OC(=O)c1ccc(OC)cc1C(F)(F)F`: the IC50 was under 1 µM in data set [1] and under 3.98 µM in data set [3]. Also, the Drug metabolism result in data set [2] is “Metabolite_Detected”.

As for `CCCCC[C@@H](C(=O)NCNC(=O)c1ccc(-c2ccc(C(=O)N[C@@H](CC(=O)O)C(=O)O)c(OCC)c2)o1)[C@@H](CC)N(C=O)OC(=O)c1ccc(-n2cnnc2)cc1`, the IC50 in data set [1] is under 1 µM; in data set [3], under 3.98 µM. Also, the Drug metabolism result in data set [2] is on record as “Metabolite_Detected”.

`CCCCC[C@@H](C(=O)NCNC(=O)c1ccc(-c2ccc(C(=O)N[C@@H](CC(=O)O)C(=O)O)c(OCC(=O)O)c2)o1)[C@@H](CC)N(C=O)OCOP(=O)(O)O`: the Drug metabolism in data set [6] was over 10%; in data set [4], “Metabolite_Detected”.

`CCCCC[C@@H](C(=O)NCNC(=O)c1ccc(-c2ccc(C(=O)N[C@@H](CC(=O)O)C(=O)O)c(OCC)c2)o1)[C@@H](CC)N(C=O)OC(=O)NC(C)(C)c1ccccc1`: the IC50 was under 1 µM in data set [1] and under 3.98 µM in data set [3]. The Drug metabolism result in data set [2] is reported as “Metabolite_Detected”.

`CCCCC[C@@H](C(=O)NCNC(=O)c1ccc(-c2cc(OCC)cc(P(=O)(O)O)c2)o1)[C@@H](CC)N(C=O)OC(=O)c1ccc(OC)cc1`: the IC50 in data set [1] was under 1 µM; in data set [3], under 3.98 µM. Besides, the Drug metabolism result in data set [7] was “Metabolite_Detected”.

For the compound `CCCCC[C@@H](C(=O)NCNC(=O)c1ccc(-c2cc(OCC)cc(P(=O)(O)O)c2)o1)[C@@H](CC)N(C=O)OC(=O)c1ccc2c(c1)OCCO2`, the IC50 in data set [1] was under 1 µM; in data set [3], under 3.98 µM. In data set [7], the Drug metabolism entry is “Metabolite_Detected”.

Consider `CCCCC[C@@H](C(=O)NCNC(=O)c1ccc(-c2cc(OCC)cc(P(=O)(O)O)c2)o1)[C@@H](CC)N(C=O)OC(=O)c1ccc(CN2CCOCC2)cc1`, for which, in data set [7], the Drug metabolism result was “Metabolite_Detected”. Also, in data set [3], the 50% inhibitory concentration (IC50) was under 3.98 µM.

As to `CCCCC[C@@H](C(=O)NCNC(=O)c1ccc(-c2ccc(C(=O)N[C@@H](CC(=O)O)C(=O)O)c(OCC(=O)O)c2)o1)[C@@H](CC)N(C=O)OC(=O)c1ccc(OC)cc1C.N.N.N`, the IC50 in data set [1] is under 1 µM; in data set [3], under 3.98 µM. Further, the Drug metabolism result in data set [4] is on record as “Metabolite_Detected”.

Turning to `CCCCC[C@@H](C(=O)NCNC(=O)c1ccc(-c2ccc(C(=O)N[C@@H](CC(=O)O)C(=O)O)c(OCC)c2)o1)[C@@H](CC)N(C=O)OC(=O)c1ccc(OC)cc1F`, the IC50 in data set [1] was under 1 µM; in data set [3] it was under 3.98 µM. For the same compound, in data set [2], the Drug metabolism result is recorded as “Metabolite_Detected”.

For the compound `CCCCC[C@@H](C(=O)NCNC(=O)c1ccc(-c2ccc(C(=O)N[C@@H](CC(=O)O)C(=O)O)c(OCC(=O)O)c2)o1)[C@@H](CC)N(C=O)OC(=O)c1ccccc1O`, the remaining at 200 h, 1 mg/ml in data set [5] is under 80%. Also, the Drug metabolism in data set [6] is over 10%; in data set [4], “Metabolite_Detected”.

`CCCCC[C@@H](C(=O)NCNC(=O)c1ccc(-c2ccc(C(=O)N[C@@H](CC(=O)O)C(=O)O)c(OCC)c2)o1)[C@@H](CC)N(C=O)OC(=O)c1ccc(C(F)(F)F)cc1C`: the results for the IC50 in data set [1] and in data set [3] were under 1 µM and under 3.98 µM, respectively. Moreover, the Drug metabolism result in data set [2] was “Metabolite_Detected”.
